Test results from patent publication US20240374692A1, “A NOVEL ACYLATED INSULIN ANALOG” (SUNSHINE LAKE PHARMA CO., LTD., priority 2021, published 2024).

Tested on: STZ-induced type I diabetes mellitus (T1DM) C57BL/6 mice
Experiment: Hypoglycemic effect, repeated administration (three times) to STZ-induced T1DM C57BL/6 mice (Example 6)
Assay type: in vivo
Parameters: key to random blood glucose: blood glucose in mmol/L
Conditions: for random blood glucose: 500 nmol/Kg S.C. three times, Mean ± SEM, n = 7
Experimental: SPF grade C57BL/6 mice were reared in a suitable rearing box in a barrier environment, with a rearing temperature of 20-26° C., a humidity of 40-70%, a time between day and night of 12 h/12 h, and the mice had free access to standard food and autoclaved sterilization water. After the 3-day quarantine period and the 2-day acclimation period, the mice were fasted for 12 h, and the mice were injected intraperitoneally with streptozotocin solution (STZ, 13 mg/mL, in citrate buffer) at 130 mg/kg. 3 Days and 7 days after administration of streptozotocin, random blood glucose and fasting blood glucose were detected, and the random blood glucose value above 25 mmol/L and fasting blood glucose value above 11.1 mmol/L were selected as T1DM model mice for follow-up experiments. On the day before administration, random blood glucose was monitored and mice were weighed. Mice were divided into 6 groups according to random blood glucose and body weight.
Subcutaneous administration (S.C.) was used to administer the corresponding vehicle or drug, once every 4-5 days, for a total of 3 administrations. During the experiment, the animals were allowed to eat and drink water freely. The random blood glucose before the first administration, and 0.25, 0.5, 1, 2, 4, 6, 8, 10, 24, 48, 72, and 96 h after administration were assessed, as well as the random blood glucose before the second and third administration, and 0.5, 1, 2, 6, 24, 48, 72, 96 and 120 h after administration.
All raw data were entered into Excel files and expressed as Mean±SEM. Statistical analysis of data was performed using Graphpad Prism 7.0 software, one-way or two-way ANOVA comparison method, and P<0.05 was used as the criterion for significant differences.

Q: What does the source list for “A14E, B16E, B25H, B29K(N(ε)-COOH(CH2)18CO-L-Lys-CO(CH2)2CO—(OEG)2), desB30 human insulin analog [Insulin-a3]”?
A: effective glucose control time (500 nmol/Kg S.C.): 96 to 120 h; random blood glucose (Day 0 (1st)): 31.8 ± 3.2; random blood glucose (Day 1): 20.7 ± 5.2; random blood glucose (Day 4 (2nd)): 29.7 ± 3.7; random blood glucose (Day 5): 20.1 ± 5.4; random blood glucose (Day 9 (3rd)): 27.7 ± 6.2; random blood glucose (Day 10): 16.0 ± 9.4; random blood glucose (Day 14): 27.4 ± 6.3; time after administration at which blood glucose returned to normal level (500 nmol/Kg S.C., after the first and second administrations): 96 h; time after administration at which blood glucose returned to normal level (500 nmol/Kg S.C., after the third administration): 120 h; time after each administration at which blood glucose reached the lowest level (Icodec 250, 500 and 1000 nmol/kg, Insulin-a3 and Insulin-a10 500 nmol/Kg): 24 h; glucose control effect compared with the Icodec-500 nmol/kg group (test drug 500 nmol/Kg S.C.): better; glucose control effect compared with the Icodec-1000 nmol/kg group (test drug 500 nmol/Kg S.C.): slightly worse
